Source: PubChem BioAssay AID1259407 (Chemical Carcinogenesis Research Information System (CCRIS), 2018)
Activity calls are given as the source filed them. No rule for the calls is given here.

System: CCRIS mutagenicity, Ames/micronucleus/aberration tests
Assay: CCRIS mutagenicity studies
[1] = Test System: AMES SALMONELLA TYPHIMURIUM, Strain/Indicator: TA98, Metabolic Activation: NONE, Method: STANDARD PLATE
[2] = Test System: AMES SALMONELLA TYPHIMURIUM, Strain/Indicator: TA100, Metabolic Activation: NONE, Method: PREINCUBATION
[3] = Test System: AMES SALMONELLA TYPHIMURIUM, Strain/Indicator: TA100, Metabolic Activation: NONE, Method: STANDARD PLATE
[4] = Test System: AMES SALMONELLA TYPHIMURIUM, Strain/Indicator: TA98, Metabolic Activation: NONE, Method: PREINCUBATION
[5] = Test System: AMES SALMONELLA TYPHIMURIUM, Strain/Indicator: TA98, Metabolic Activation: RAT, LIVER, S-9, AROCLOR 1254, Method: STANDARD PLATE
[6] = Test System: AMES SALMONELLA TYPHIMURIUM, Strain/Indicator: TA100, Metabolic Activation: RAT, LIVER, S-9, AROCLOR 1254, Method: STANDARD PLATE
[7] = Test System: AMES SALMONELLA TYPHIMURIUM, Strain/Indicator: TA1535, Metabolic Activation: NONE, Method: PREINCUBATION
[8] = Test System: AMES SALMONELLA TYPHIMURIUM, Strain/Indicator: TA1535, Metabolic Activation: NONE, Method: STANDARD PLATE
[9] = Test System: AMES SALMONELLA TYPHIMURIUM, Strain/Indicator: TA1535, Metabolic Activation: RAT, LIVER, S-9, AROCLOR 1254, Method: STANDARD PLATE
[10] = Test System: AMES SALMONELLA TYPHIMURIUM, Strain/Indicator: TA1537, Metabolic Activation: NONE, Method: STANDARD PLATE
[11] = Test System: AMES SALMONELLA TYPHIMURIUM, Strain/Indicator: TA1537, Metabolic Activation: RAT, LIVER, S-9, AROCLOR 1254, Method: STANDARD PLATE
[12] = Test System: AMES SALMONELLA TYPHIMURIUM, Strain/Indicator: TA1538, Metabolic Activation: NONE, Method: STANDARD PLATE
[13] = Test System: AMES SALMONELLA TYPHIMURIUM, Strain/Indicator: TA1538, Metabolic Activation: RAT, LIVER, S-9, AROCLOR 1254, Method: STANDARD PLATE

Measured: mutagenic call

C=C(C)C(=O)/C(=C\C(=O)O)OC
inactive: [1] inactive; negative | Test System: AMES SALMONELLA TYPHIMURIUM, Strain/Indicator: TA98, Metabolic Activation: RAT LIVER S-9, DELOREM 103, Method: STANDARD PLATE inactive; negative | Test System: AMES SALMONELLA TYPHIMURIUM, Strain/Indicator: TA98, Metabolic Activation: RAT, LIVER, MICROSOMES, PHENOBARBITAL, Method: STANDARD PLATE inactive; negative | [2] inactive; negative | [3] inactive; negative | Test System: AMES SALMONELLA TYPHIMURIUM, Strain/Indicator: TA100, Metabolic Activation: RAT LIVER S-9, DELOREM 103, Method: STANDARD PLATE inactive; negative | Test System: AMES SALMONELLA TYPHIMURIUM, Strain/Indicator: TA100, Metabolic Activation: RAT, LIVER, MICROSOMES, PHENOBARBITAL, Method: STANDARD PLATE inactive; negative | Test System: AMES SALMONELLA TYPHIMURIUM, Strain/Indicator: TA100, Metabolic Activation: RAT, LIVER, S-9, PHENOBARBITAL, Method: PREINCUBATION inactive; negative

Oc1ccc2ncccc2c1
inactive: [3] inactive; negative | Test System: AMES SALMONELLA TYPHIMURIUM, Strain/Indicator: TA100, Metabolic Activation: RAT, LIVER, S-9, AROCLOR 1254 (10% OR 20%), Method: STANDARD PLATE inactive; negative

CC(=O)O[C@]1(C(C)=O)CC[C@H]2[C@@H]3C[C@H](C)C4=CC(=O)CC[C@]4(C)[C@H]3CC[C@@]21C
inactive: Test System: AMES SALMONELLA TYPHIMURIUM, Strain/Indicator: TA97, Metabolic Activation: HAMSTER, LIVER, S-9, AROCLOR 1254 (10 OR 30%), Method: PREINCUBATION inactive; negative | Test System: AMES SALMONELLA TYPHIMURIUM, Strain/Indicator: TA97, Metabolic Activation: NONE, Method: PREINCUBATION inactive; negative | Test System: AMES SALMONELLA TYPHIMURIUM, Strain/Indicator: TA97, Metabolic Activation: RAT, LIVER, S-9, AROCLOR 1254 (10 OR 30%), Method: PREINCUBATION inactive; negative | Test System: AMES SALMONELLA TYPHIMURIUM, Strain/Indicator: TA98, Metabolic Activation: HAMSTER, LIVER, S-9, AROCLOR 1254 (10 OR 30%), Method: PREINCUBATION inactive; negative | [4] inactive; negative | [1] inactive; negative | Test System: AMES SALMONELLA TYPHIMURIUM, Strain/Indicator: TA98, Metabolic Activation: RAT, LIVER, S-9, AROCLOR 1254 (10 OR 30%), Method: PREINCUBATION inactive; negative | [5] inactive; negative | Test System: AMES SALMONELLA TYPHIMURIUM, Strain/Indicator: TA100, Metabolic Activation: HAMSTER, LIVER, S-9, AROCLOR 1254 (10 OR 30%), Method: PREINCUBATION inactive; negative | [2] inactive; negative | [3] inactive; negative | Test System: AMES SALMONELLA TYPHIMURIUM, Strain/Indicator: TA100, Metabolic Activation: RAT, LIVER, S-9, AROCLOR 1254 (10 OR 30%), Method: PREINCUBATION inactive; negative | [6] inactive; negative | Test System: AMES SALMONELLA TYPHIMURIUM, Strain/Indicator: TA1535, Metabolic Activation: HAMSTER, LIVER, S-9, AROCLOR 1254 (10 OR 30%), Method: PREINCUBATION inactive; negative | [7] inactive; negative | [8] inactive; negative | Test System: AMES SALMONELLA TYPHIMURIUM, Strain/Indicator: TA1535, Metabolic Activation: RAT, LIVER, S-9, AROCLOR 1254 (10 OR 30%), Method: PREINCUBATION inactive; negative | [9] inactive; negative | [10] inactive; negative | [11] inactive; negative | [12] inactive; negative | [13] inactive; negative | Test System: CHINESE HAMSTER V-79, Strain/Indicator: V-79 (HGPRT)/6-THIOGUANINE, Metabolic Activation: NONE inactive; negative | Test System: CHINESE HAMSTER V-79, Strain/Indicator: V-79 (HGPRT)/6-THIOGUANINE, Metabolic Activation: RAT, LIVER, S-9, AROCLOR 1254 inactive; negative

CN(C)CCNC(=O)c1cccc2nc(-c3ccccc3)oc12
inactive: [10] inactive; negative

CCN(CC)C(=S)S[C@@H]1O[C@H](CO)[C@@H](O)[C@H](O)[C@H]1O
inactive: [1] inactive; negative | [5] inactive; negative | [3] inactive; negative | [6] inactive; negative

COc1c(N)cc(C)c(N)c1C
inactive: [1] inactive; negative | [5] inactive; negative | [3] inactive; negative | [6] inactive; negative | [8] inactive; negative | [9] inactive; negative | [10] inactive; negative | [11] inactive; negative | [12] inactive; negative | [13] inactive; negative

C=C(C)C(=O)OCC(C)C
inactive: Test System: AMES SALMONELLA TYPHIMURIUM, Strain/Indicator: TA98, Metabolic Activation: HAMSTER, LIVER, S-9, AROCLOR 1254 (10%), Method: PREINCUBATION inactive; negative | [4] inactive; negative | Test System: AMES SALMONELLA TYPHIMURIUM, Strain/Indicator: TA98, Metabolic Activation: RAT, LIVER, S-9, AROCLOR 1254 (10%), Method: PREINCUBATION inactive; negative | Test System: AMES SALMONELLA TYPHIMURIUM, Strain/Indicator: TA100, Metabolic Activation: HAMSTER, LIVER, S-9, AROCLOR 1254 (10%), Method: PREINCUBATION inactive; negative | [2] inactive; negative | Test System: AMES SALMONELLA TYPHIMURIUM, Strain/Indicator: TA100, Metabolic Activation: RAT, LIVER, S-9, AROCLOR 1254 (10%), Method: PREINCUBATION inactive; negative | Test System: AMES SALMONELLA TYPHIMURIUM, Strain/Indicator: TA1535, Metabolic Activation: HAMSTER, LIVER, S-9, AROCLOR 1254 (10%), Method: PREINCUBATION inactive; negative | [7] inactive; negative | Test System: AMES SALMONELLA TYPHIMURIUM, Strain/Indicator: TA1535, Metabolic Activation: RAT, LIVER, S-9, AROCLOR 1254 (10%), Method: PREINCUBATION inactive; negative | Test System: AMES SALMONELLA TYPHIMURIUM, Strain/Indicator: TA1537, Metabolic Activation: HAMSTER, LIVER, S-9, AROCLOR 1254 (10%), Method: PREINCUBATION inactive; negative | Test System: AMES SALMONELLA TYPHIMURIUM, Strain/Indicator: TA1537, Metabolic Activation: NONE, Method: PREINCUBATION inactive; negative | Test System: AMES SALMONELLA TYPHIMURIUM, Strain/Indicator: TA1537, Metabolic Activation: RAT, LIVER, S-9, AROCLOR 1254 (10%), Method: PREINCUBATION inactive; negative
